The text below walks through data of paper PMC8849047, “Salicylate metal-binding isosteres as fragments for metalloenzyme inhibition” (Chemical Science, 2022).

Where two headings read alike, the source gives them in different places.

In data set [1] the test system is influenza H1N1 N-terminal PA endonuclease (PAN). The experiment in a line: PAN endonuclease inhibition assay (fluorescent ssDNA-oligo substrate). The data set is classed as biochemical. The note with it: 100 μM; standard deviation in parentheses.
The format of data set [2] is physicochemical. The source says:
This was confirmed by computationally calculated physicochemical data (Tables S2 and S3 ^†).

A short description of data set [3]: log P by potentiometric titration octanol/water (Sirius T3); log D7.4 calculated from pKa and log P. It is filed as physicochemical. The following applies: for logD: pH 7.4. The procedure: In addition to gaining an understanding about the metal coordinating properties of the salicylate MBIs by using [(Tp^Ph,Me)Zn(MBI)] model complexes, the physicochemical properties of the MBIs were also studied. The acidity (pKa) and lipophilicity (log P) were measured using potentiometric methods and the lipophilicity at physiological pH (log D7.4) was calculated from these two values (Table 1).[23–25]
(§1) Physicochemical properties were determined using a Sirius T3 instrument.[23–25] […] The pKa of a compound was determined by analysing each MBI sample in triplicate using potentiometric titrations. Experiments were typically performed over a pH range of 2.0–12.0. Standard deviations were derived from fitting all three replicate experiments. For water insoluble compounds methanol was added and the obtained apparent pKa (psKa) was extrapolated to the aqueous pKa by the Yasuda–Shedlovsky procedure. log P was determined via potentiometric titrations in the presence of varying ratios of octanol and water. The presence of octanol shifts the pKa of ionizable species, and based on the shifts, a log P can be determined. Measurements for log P determination were typically performed over a pH range of 2.0–12.0. Three experiments with varying ratios of water:octanol was performed, allowing for a standard deviation to be determined from the fitting of all measurements. MBI sample sizes were ∼0.5 mg for both pKa and log P measurements.

The target in data set [4] is T1, Recombinant human glyoxalase I (GLO1) (Homo sapiens, UniProt Q04760).
T1 construct: purchased R&D Systems 4959-GL
T1 sequence (Q04760 2-184 limits assumed): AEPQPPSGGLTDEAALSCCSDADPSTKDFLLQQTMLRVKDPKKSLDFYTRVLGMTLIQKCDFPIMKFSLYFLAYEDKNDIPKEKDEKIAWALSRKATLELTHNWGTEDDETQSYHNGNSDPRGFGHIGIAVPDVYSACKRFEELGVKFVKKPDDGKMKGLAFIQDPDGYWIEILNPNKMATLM
The experiment in a line: GLO1 enzyme inhibition assay (absorbance at 240 nm). The data set is classed as biochemical. The note with it: for inhibition at 100 µM: read-out: %inhib GLO1. The method, then: To evaluate if the salicylate MBIs could serve as starting points for future FBDD campaigns, the MBI library was screened for inhibitory activity against human glyoxalase I (GLO1) at fragment concentrations of 100 μM (Table 2). […] Recombinant human glyoxalase I (GLO1) was purchased from R&D Systems (catalog #4959-GL). Assays were carried out in 0.1 M sodium phosphate, pH 7.0 buffer, utilizing 96-well clear UV plates (Corning UV Transparent Microplates, catalog #3635). A fresh solution of GSH (100 mM) and methylglyoxal (MG) (100 mM) was prepared in Millipore grade water. […] The substrate mixture was vortexed vigorously for 45 s and then allowed to sit at room temperature for 15 min. The initial well volume was 50 μL containing GLO1 (40 ng) and inhibitor. This protein and inhibitor mixture was incubated for 15–20 min prior to addition of the substrate. […] The enzyme activity was measured utilizing a Biotek Synergy HT or H4 plate reader by measuring absorbance at 240 nm every 1 min for a duration of 8 min. The rate of absorbance increase was compared for samples versus controls containing no inhibitor (set at 100% activity). The absorbance reading for background wells containing DMSO, buffer, and substrate (no enzyme or inhibitor) was subtracted from the experimental wells. […] Dose-response curves were generated, analysed and fitted to obtain IC50 values (see ESI ^†).
5. Single Point screening
Single point screening of salicylate MBI library against GLO1 at 100 µM inhibitor concentration. Chugai 1 (4,6-diphenyl-N-hydroxypyridone) 4 as positive control. […]
6. Dose-response curves against GLO1
The raw data from the GLO1 assay was background corrected and normalized from 0 to 100 with 100 being the largest mean of each dataset. A variable slope log-logistic model was chosen for curve fitting.
The corresponding datapoints are shown as empty bullets and were not included in the curve-fitting. The resulting restricted datasets were fitted according to a literature procedure setting the lower limit of the dose-response curve to zero. This compensates for the loss of information caused by trimming of the dataset. 5,6
Figure S7. Dose-response curve of 11 against GLO1.

Data set [5] has as its target T2, Human recombinant MMP-3 catalytic domain (Homo sapiens, UniProt P08254).
T2 construct: Human recombinant MMP-3 catalytic domain was purchased; purchased ENZO Life Sciences BML-SE109-9090
The experiment in a line: MMP-3 enzyme inhibition assay (chromogenic substrate, 412 nm). It is filed as biochemical. The following applies: standard deviation in parentheses, read-out: %inhib MMP-3. The procedure:
To probe the selectivity of the salicylate MBIs, the library was screened against matrix metalloproteinase-3 (MMP-3) at fragment concentrations of 100 μM (Table 2).
Human recombinant MMP-3 catalytic domain was purchased from ENZO Life Sciences (catalog # BML-SE109-9090). Assays were carried out in clear Costar 96-well, half-area, flat-bottom assay plates (catalog # 80-2404). Each well contained a total volume of 100 μL including buffer (50 mM MES, 10 mM CaCl2, 0.05% Brij-35, 1 mM DNTB, pH 6.0), MMP-3 (2 U), and the fragment solution. After a 30 min incubation period at 37 °C, the reaction was initiated by the addition of 10 μL of chromogenic MMP-3 substrate (100 μM final concentration, Ac-Pro-Leu-Gly-[2-mercap-to-4-methyl-pentanoyl]-Leu-Gly-OC2H5, ENZO Life Sciences, catalog #BML-P125-0005). Absorbance was monitored at 412 nm using a Bio-Tek ELx 808 colorimetric plate reader, and measurements were recorded every minute for 10 min. The rate of absorbance increase was compared for samples versus negative controls (no inhibitor, arbitrarily set as 100% activity).
5. Single Point screening […]
Figure S5. Single point screening of salicylate MBI library against MMP-3 at 100 µM inhibitor
concentration. NNGH as positive control.

Data set [6] has as its target T1, Recombinant human glyoxalase I (GLO1). Details: method as in previous studies (unpublished). The following applies: ref previous studies (unpublished); read-out: IC50 against GLO1; cited from earlier work.
The nature of data set [7]: pKa by potentiometric titration (Sirius T3). It is filed as physicochemical. The method, then:
In addition to gaining an understanding about the metal coordinating properties of the salicylate MBIs by using [(Tp^Ph,Me)Zn(MBI)] model complexes, the physicochemical properties of the MBIs were also studied.
as §1

Setting [8] is: 100 μM, standard deviation in parentheses.
Where [9] appears, read: potentiometric, 0.15 M KCl, triplicate, read-out: pKa (pKa,1).
[10] abbreviates: calculated from measured pKa and log P, read-out: log D7.4.
Setting [11] is: potentiometric, octanol/water, read-out: log P.

T2 sequence (P08254 100-272 limits assumed): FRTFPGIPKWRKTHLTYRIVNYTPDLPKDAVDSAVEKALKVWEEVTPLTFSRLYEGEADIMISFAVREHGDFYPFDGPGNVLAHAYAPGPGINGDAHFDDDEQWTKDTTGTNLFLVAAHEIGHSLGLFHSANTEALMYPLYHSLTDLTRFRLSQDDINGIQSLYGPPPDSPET

With `c1ccc2sc(-c3cccc4nc[nH]c34)nc2c1` [Compound 28], in data set [1], the “%inhib Endo (PAN)” value is 4 (8) %. In data set [2], the aqueous solubility result is given as “poor aqueous solubility”.
On to `O=C(O)c1ccccc1O` [Compound 1, Salicylic acid, reference compound], for which, in data set [3], the logP is 2.18 and the logD is -2.4. Moreover, the inhibition at 100 µM in data set [4] (setting [8]) came to 22%. Besides, in data set [5], the inhibition at 100 µM was 8%. Further, the “%inhib Endo (PAN)” value in data set [1] is listed as 12 (7) %. Moreover, in data set [6], the IC50 (as a rule, the point on the concentration scale where inhibition reaches its midpoint) is greater than 50 µM.
Take `CS(=O)(=O)Nc1ccccc1-c1nnn[nH]1` [Compound 20]: the pKa – broadly, the pH at which an ionisable group is half protonated – is 9.52 in data set [7] (potentiometric, 0.15 M KCl, triplicate, read-out: pKa) and 3.62 in data set [7] (setting [9]). For the same molecule, the logD in data set [3] (setting [10]) was -0.43. Also, the logP in data set [3] (setting [11]) was 1.18. Also, the inhibition at 100 µM is 10% in data set [4] and 3% in data set [5]. In addition, in data set [1], the “%inhib Endo (PAN)” value was 43 (4) %.
Consider `O=C(O)c1cccc2oc(=O)[nH]c12` [Compound 3], for which the pKa is 10.3 in data set [7] (pKa) and 3.65 in data set [7] (pKa (pKa,1)). Besides, the logP in data set [3] is 1.28. Also, the logD in data set [3] is -2.47. Besides, the figures for the inhibition at 100 µM in data set [4] (setting [8]) and in data set [5] were 29% and 0%, respectively. In addition, the “%inhib Endo (PAN)” value in data set [1] is 11 (7) %.
Take `COC(=O)c1ccccc1NS(C)(=O)=O` [Compound 12]: the pKa in data set [7] (setting [9]) worked out at 8.86. Besides, in data set [3] (setting [10]), the logD is 1.49. Moreover, in data set [3] (setting [11]), the logP is 1.51. In addition, the inhibition at 100 µM in data set [4] turned out to be 18%; in data set [5], 12%. Besides, in data set [1], the “%inhib Endo (PAN)” value is on record as 33 (11) %.
Consider `CS(=O)(=O)Nc1ccccc1-c1nc2ccccc2s1` [Compound 27], for which the inhibition at 100 µM in data set [4] (setting [8]) came out at 44%; in data set [5] it was 0%. Besides, the “%inhib Endo (PAN)” value in data set [1] was 15 (7) %. In data set [2], the aqueous solubility result is listed as “poor aqueous solubility”.
As for `CONC(=O)c1cccc2oc(=O)[nH]c12` [Compound 17], the pKa in data set [7] (pKa) was 12.5; in data set [7] (pKa (pKa,1)), 7.58. Besides, in data set [3], the logP was 0.4. Besides, in data set [3], the logD was 0.18. For the same molecule, the inhibition at 100 µM in data set [4] (setting [8]) was found to be 33%; in data set [5] it was 0%. Further, in data set [1], the “%inhib Endo (PAN)” value is given as 23 (6) %.
For `CONC(=O)c1ccccc1O` [Compound 7], the pKa in data set [7] (pKa) turned out to be 12; in data set [7] (pKa (pKa,1)), 7.23. The logP in data set [3] is 0.85. In data set [3], the logD is 0.49. In addition, the inhibition at 100 µM in data set [4] (setting [8]) was 22%; in data set [5] it was 0%. In data set [1], the “%inhib Endo (PAN)” value was 46 (8) %.
In the case of `Oc1ccccc1-c1nc2ccccc2s1` [Compound 11], in data set [4] (setting [8]), the “%inhib GLO1” value is recorded as “almost complete inhibition”. Further, the inhibition at 100 µM in data set [4] (setting [8]) was 94%; in data set [5], 0%. Moreover, the IC50 in data set [4] (dose-response curves, read-out: IC50 against GLO1) came out at 19.6 ± 4.7 µM. For the same molecule, in data set [1], the “%inhib Endo (PAN)” value is 21 (6) %. The aqueous solubility entry in data set [2] was “poor aqueous solubility”.
Regarding `CS(=O)(=O)Nc1ccccc1C(=O)O` [Compound 2], the pKa was 10.8 in data set [7] (pKa) and 3.04 in data set [7] (pKa (pKa,1)). Moreover, the logP in data set [3] is 1.39. The logD in data set [3] is -2.97. Besides, the inhibition at 100 µM was 18% in data set [4] (setting [8]) and 11% in data set [5]. Besides, the “%inhib Endo (PAN)” value in data set [1] is 1 (9) %.
